In patent US11555026B2, “AHR inhibitors and uses thereof” (Ikena Oncology, Inc., priority 2017, dated 2023) one finds IC50 data, which are given here for 42 compounds.

The target of this assay is T1, AHR (UniProt P35869).
T1 sequence (P35869 1-848): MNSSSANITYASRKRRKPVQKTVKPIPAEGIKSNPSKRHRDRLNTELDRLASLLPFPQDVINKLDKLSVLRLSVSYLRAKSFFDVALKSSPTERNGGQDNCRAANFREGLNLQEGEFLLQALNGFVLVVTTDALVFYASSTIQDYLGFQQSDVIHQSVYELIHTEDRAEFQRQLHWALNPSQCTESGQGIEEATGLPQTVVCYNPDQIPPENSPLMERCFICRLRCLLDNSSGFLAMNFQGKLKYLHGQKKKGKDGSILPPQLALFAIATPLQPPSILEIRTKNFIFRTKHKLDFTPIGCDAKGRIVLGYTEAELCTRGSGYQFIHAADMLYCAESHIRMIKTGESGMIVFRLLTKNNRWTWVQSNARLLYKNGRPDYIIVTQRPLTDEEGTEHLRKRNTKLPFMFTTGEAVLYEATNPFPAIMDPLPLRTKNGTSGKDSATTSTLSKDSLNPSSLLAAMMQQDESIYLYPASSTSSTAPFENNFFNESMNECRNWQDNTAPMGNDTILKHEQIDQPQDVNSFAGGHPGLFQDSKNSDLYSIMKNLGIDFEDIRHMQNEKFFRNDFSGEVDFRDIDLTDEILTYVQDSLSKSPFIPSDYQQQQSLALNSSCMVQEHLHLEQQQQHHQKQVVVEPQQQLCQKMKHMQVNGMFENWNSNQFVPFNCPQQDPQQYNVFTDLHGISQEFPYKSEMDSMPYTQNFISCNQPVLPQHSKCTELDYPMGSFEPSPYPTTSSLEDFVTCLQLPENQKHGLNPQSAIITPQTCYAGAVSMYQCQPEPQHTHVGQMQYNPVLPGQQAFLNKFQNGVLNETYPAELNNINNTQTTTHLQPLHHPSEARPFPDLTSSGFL
Put plainly: DRE-Luciferase Reporter Assay (Alternate Method, Example 1B). In kind it is cell-based. Also noted: IC50; other: alternate method: compound and agonist added at plating or after overnight incubation; murine (Hepa1-6, He). Conditions: alternate method: compound and agonist added at plating or after overnight incubation; murine (Hepa1-6, Hepa-1c1c7) or human (HepG2) DRE-luciferase reporter cells, cell line used not stated. The method, then:
AHR binds to Dioxin Responsive Elements (DRE) upstream of genes that it activates. One measure of AHR activity is activation of a reporter gene, such as luciferase, downstream of one or multiple DRE elements. Luciferase activity will reflect activation and inhibition of AHR in the cells expressing his reporter.
Murine Hepa1-6 or Hepa-1c1c7 or other murine cell line with a DRE-luciferase reporter either stably or transiently transfected were plated in media in plates (96-well, 384-well or other plates) and incubated overnight at 37° C. in a CO2 incubator or compound and agonist were added at the time of plating. Likewise, human HepG2 or other human cell line with a DRE-luciferase reporter either stably or transiently transfected were plated in media in plates (96-well, 384-well or other plates) and incubated overnight at 37° C. in a CO2 incubator or compound and agonist were added at the time of plating.
At the time that cells are plated or following incubation overnight, an AHR activating ligand, such as TCDD, kynurenine, ITE (2-(1H-indole-3-ylcarbonyl)-4-thiazolecarboxylic methyl ester), VAF347, BNF (beta-naphthoflavone), FICZ (6-formylindolo(3,2-b) carbazole or other AHR ligands, was added with or without AHR antagonist.
Cells were incubated for 4, 15 or 24 hours or another time point and then lysed for determination of luciferase activity as a read-out of the AHR activation or inhibition. Luciferase was measured with a commercial kit such as the Promega Luciferase kit or any kit or reagents that provide the luciferin substrate for measuring luciferase activity. The level of luciferase with only activating ligand added was the maximum signal while the luciferase with no ligand was the minimum signal. IC50 values were determined as the concentration which inhibits half of the luciferase activity.

In turn, `Cn1cncc1C(=O)Nc1ccc2cc(-c3ccccc3)cnc2c1` [I-79, 3-Methyl-N-(3-phenyl-7-quinolyl)imidazole-4-carboxamide] gave an IC50 greater than 1.5 µM.
With `Cc1ccccc1-c1ccc2c(C)c(NC(=O)c3ccnn3C)ccc2n1` [I-72], the IC50 was greater than 1.5 µM.
The result for `Cc1ccccc1-c1ccc2cc(NC(=O)c3ccnn3C)ccc2c1` [I-52, 2-Methyl-N-[6-(o-tolyl)-2-naphthyl]pyrazole-3-carboxamide] reads greater than 1.5 µM; that for `Cn1nccc1C(=O)Nc1ccc2cc(-c3cccc(C(F)(F)F)c3)cnc2c1` [I-84, 2-Methyl-N-[3-[3-(trifluoromethyl)phenyl]-7-quinolyl]pyrazole-3-carboxamide], less than 0.5 µM.
Compound `Cn1nccc1C(=O)Nc1ccc(C#Cc2ccccc2)cc1C(F)(F)F` [I-62] showed an IC50 greater than 1.5 µM.
The result for `Cn1nccc1C(=O)Nc1ccc2cc(-c3ncco3)cnc2c1` [I-45, 2-Methyl-N-(3-oxazol-2-yl-7-quinolyl)pyrazole-3-carboxamide] reads 0.5 to 1 µM.
With `CC(C)n1nccc1C(=O)Nc1ccc2cc(-c3ccccc3)cnc2c1` [I-76, 2-Isopropyl-N-(3-phenyl-7-quinolyl)pyrazole-3-carboxamide], the IC50 is greater than 1.5 µM.
The result for `CC(=O)Nc1ccc2cc(-c3ccccc3)cnc2c1` [I-47, N-(3-Phenyl-7-quinolyl)acetamide] reads greater than 1.5 µM; that for `Cc1cc(/N=N/c2cccc3ccccc23)ccc1NC(=O)c1ccnn1C` [I-75], 0.5 to 1 µM; that for `Cn1nccc1C(=O)Nc1ccc2cc(-c3ccsc3)cnc2c1` [I-48, 2-Methyl-N-[3-(3-thienyl)-7-quinolyl]pyrazole-3-carboxamide], less than 0.5 µM.
Under `Cn1nccc1C(=O)Nc1ccc2cc(-c3ccccc3C(F)(F)F)cnc2c1` [I-88, 2-Methyl-N-[3-[2-(trifluoromethyl)phenyl]-7-quinolyl]pyrazole-3-carboxamide] stands greater than 1.5 µM; under `Cn1nccc1C(=O)Nc1ccc2cccnc2c1` [I-50, 2-Methyl-N-(7-quinolyl)pyrazole-3-carboxamide], greater than 1.5 µM.
The result for `COc1cc(C#Cc2ccccc2)ccc1NC(=O)c1ccnn1C` [I-60, N-[2-Methoxy-4-(2-phenylethynyl)phenyl]-2-methyl-pyrazole-3-carboxamide] reads greater than 1.5 µM.
For the compound `Cc1ccccc1-c1cnc2cc(NC(=O)c3ccnn3C)ccc2c1` [I-51, 2-Methyl-N-[3-(o-tolyl)-7-quinolyl]pyrazole-3-carboxamide], the IC50 is less than 0.5 µM.
The result for `Cc1cc(/C=C/c2ccccc2)ccc1N(C)C(=O)c1ccnn1C` [I-66] reads 0.5 to 1 µM.
The result for `Cn1nccc1C(=O)Nc1ccc(C#Cc2ccccc2)cc1` [I-63, 2-Methyl-N-[4-(2-phenylethynyl)phenyl]pyrazole-3-carboxamide] reads greater than 1.5 µM; that for `Cn1nccc1C(=O)Nc1ccc2cc(-c3ccccc3O)cnc2c1` [I-81, N-[3-(2-Hydroxyphenyl)-7-quinolyl]-2-methyl-pyrazole-3-carboxamide], 1 to 1.5 µM.
Compound `O=C(Nc1ccc2cc(-c3ccccc3)cnc2c1)c1ccn[nH]1` [I-78, N-(3-Phenyl-7-quinolyl)-1H-pyrazole-5-carboxamide] gave a half-inhibitory concentration (IC50) of 0.5 to 1 µM.
The compound `Cc1ccccc1-c1cnc2ccc(NC(=O)c3ccnn3C)c(C)c2c1` [I-69] had an IC50 greater than 1.5 µM.
The result for `Cn1nccc1C(=O)Nc1ccc2cc(-c3nccs3)cnc2c1` [I-44, 2-Methyl-N-(3-thiazol-2-yl-7-quinolyl)pyrazole-3-carboxamide] reads less than 0.5 µM; that for `Cc1ccccc1/C=C/c1ccc(C(=O)Nc2ccnn2C)c(C)c1` [I-73], greater than 1.5 µM.
Under `Cn1nccc1C(=O)Nc1ccc2cc(-c3cccc(O)c3)cnc2c1` [I-82, N-[3-(3-Hydroxyphenyl)-7-quinolyl]-2-methyl-pyrazole-3-carboxamide] stands 1 to 1.5 µM.
`Cn1nccc1C(=O)Nc1ccc2cc(-c3ccccc3)cnc2c1` [I-70] came in with an IC50 of less than 0.5 µM.
Compound `Cn1nccc1C(=O)Nc1ccc(C#Cc2ccccc2)c2c1OCO2` [I-59, 2-Methyl-N-[7-(2-phenylethynyl)-1,3-benzodioxol-4-yl]pyrazole-3-carboxamide] returned an IC50 greater than 1.5 µM.
Take `Cn1nccc1C(=O)Nc1cnc2cc(-c3ccccc3)ccc2c1` [I-67]: the half-maximal inhibitory concentration (IC50) fell in the range of 0.5 to 1 µM.
For the compound `Cn1nccc1C(=O)Nc1ccc2c(=O)n(-c3ccccc3)cnc2c1` [I-77, 2-Methyl-N-(4-oxo-3-phenyl-quinazolin-7-yl)pyrazole-3-carboxamide], the IC50 was greater than 1.5 µM.
In the case of `Cn1nccc1C(=O)Nc1ccc2cc(-c3cccs3)cnc2c1` [I-46, 2-Methyl-N-[3-(2-thienyl)-7-quinolyl]pyrazole-3-carboxamide], the IC50 was less than 0.5 µM.
The result for `Cn1nccc1C(=O)Nc1ccc2cc(-c3ccc(N4CCOCC4)cc3)cnc2c1` [I-80, 2-Methyl-N-[3-(4-morpholinophenyl)-7-quinolyl]pyrazole-3-carboxamide] reads greater than 1.5 µM.
On to `Cc1cc(C#Cc2ccncc2)ccc1NC(=O)c1ccnn1C` [I-55, 2-Methyl-N-[2-methyl-4-[2-(4-pyridyl)ethynyl]phenyl]pyrazole-3-carboxamide], for which the IC50 is greater than 1.5 µM.
Under `Cc1cc(C#CC2CCCCC2)ccc1NC(=O)c1ccnn1C` [I-54, N-[4-(2-Cyclohexylethynyl)-2-methyl-phenyl]-2-methyl-pyrazole-3-carboxamide] stands greater than 1.5 µM; under `Cn1nccc1C(=O)Nc1ccc2cc(C3CCCCC3)cnc2c1` [I-49, N-(3-Cyclohexyl-7-quinolyl)-2-methyl-pyrazole-3-carboxamide], greater than 1.5 µM; under `Cc1c(NC(=O)c2ccnn2C)ccc2nc(-c3ccccc3)ccc12` [I-68], greater than 1.5 µM.
Compound `Cc1cc(C2CC2c2ccccc2)ccc1NC(=O)c1ccnn1C` (stereo not drawn) [I-71] gave an IC50 greater than 1.5 µM.
The compound `Cn1nccc1C(=O)Nc1ccc2cc(-c3ccccc3N3CCOCC3)cnc2c1` [I-83, 2-Methyl-N-[3-(2-morpholinophenyl)-7-quinolyl]pyrazole-3-carboxamide] yielded an IC50 greater than 1.5 µM.
Under `Cc1cc(C#Cc2cccc3c2OCO3)ccc1NC(=O)c1ccnn1C` [I-53, N-[4-[2-(1,3-Benzodioxol-4-yl)ethynyl]-2-methyl-phenyl]-2-methyl-pyrazole-3-carboxamide] stands greater than 1.5 µM; under `Cc1cc(C#Cc2cccnc2)ccc1NC(=O)c1ccnn1C` [I-56, 2-Methyl-N-[2-methyl-4-[2-(3-pyridyl)ethynyl]phenyl]pyrazole-3-carboxamide], greater than 1.5 µM.
The result for `Cc1cc(C#CC2CCNCC2)ccc1NC(=O)c1ccnn1C` [I-57, 2-Methyl-N-[2-methyl-4-[2-(4-piperidyl)ethynyl]phenyl]pyrazole-3-carboxamide] reads greater than 1.5 µM.
Under `CC#Cc1ccc(NC(=O)c2ccnn2C)c(C)c1` [I-61, 2-methyl-N-(2-methyl-4-prop-1-ynyl-phenyl)pyrazole-3-carboxamide] stands greater than 1.5 µM; under `Cc1cc(/N=N/c2cccc3cccnc23)ccc1NC(=O)c1ccnn1C` [I-74], greater than 1.5 µM; under `Cc1cc(C#Cc2ccccn2)ccc1NC(=O)c1ccnn1C` [I-58, 2-Methyl-N-[2-methyl-4-[2-(2-pyridyl)ethynyl]phenyl]pyrazole-3-carboxamide], greater than 1.5 µM.
`COc1ccccc1C#Cc1ccc(NC(=O)c2ccnn2C)c(C)c1` [I-64] registered an IC50 greater than 1.5 µM.
The compound `Cn1nccc1C(=O)Nc1ccc2cc(-c3cccc(N4CCOCC4)c3)cnc2c1` [I-85, 2-Methyl-N-[3-(3-morpholinophenyl)-7-quinolyl]pyrazole-3-carboxamide] came in with an IC50 greater than 1.5 µM.
